Our source for the inhibition and IC50 values is US20130165483A1, “HETEROARYLS AND USES THEREOF” (MILLENNIUM PHARMACEUTICALS, INC., priority 2011, published 2013).

The target in this test is T1, VPS34 (Homo sapiens, UniProt Q8NEB9).
T1 construct: GST (N); host or cells: SF9 insect cells (baculovirus)
Put plainly: Human VPS34 enzyme assay (Adapta TR-FRET). The class given is biochemical. The settings on record: for inhibition at 1.11 µM: 1 h, at a 1.11 μM concentration, read-out: VPS34 Percent Inhibition; for pIC50: VPS34 enzyme. As to the method:
VPS34 (accession number GB:BC033004) was cloned into pDEST20-Thombin as N-terminal GST tagged fusion proteins using the Gateway system (Invitrogen, catalog#11804-013). The sequences were verified before recombinant protein expression using the Baculovirus Expression System with Gateway® Technology.
For expression VPS34 was infected at 1MOI in SF9 cells and harvested 72 hours post infection.
For purification, VPS34 is purified by Glutathione Sepharose 4 Fast Flow (GE Healthcare #17-5132-03) followed by HiTrap Q (GE Healthcare #17-1153-01).
Human VPS34 enzyme assay method
100mL compounds in DMSO are added to wells of a 384 well microtitre plate (Greiner 780076). At room temperature: 5ul VPS34 reaction buffer (Invitrogen Assay Buffer Q (diluted 1 in 5 with nanopure water) plus 2 mM DTT and 2 mM MnCl2) containing ATP (20 uM, Promega) and 200 uM PI—PS substrate (Invitrogen PV5122) is added followed immediately by 5ul VPS34 reaction buffer (as above) containing VPS34 (5 nM, Millennium Protein Sciences Group) and the mixture is incubated with shaking at room temperature for 1 hour. Then 5ul VPS34 stop-detect mix (as per Invitrogen Adapta Assay kit (PV5009) instructions (contains kinase quench buffer, TR-FRET buffer, Adapta Eu anti-ADP antibody and Alexa Fluor 647 ADP tracer)) is added to quench the reaction. The plates are then incubated for 30 minutes at room temperature with shaking and then read on a BMG PheraStar Plus reader.
For the assay methods described above, test compound percent inhibition, at various concentrations, is calculated relative to control (DMSO and EDTA) treated samples. Compound concentration versus percent inhibition curves are fitted to generate IC50 values. One skilled in the art will appreciate that the values generated either as percentage inhibition at a single concentration or IC50 values are subject to experimental variation.
On the technique in general: Time-resolved FRET reads energy transfer from a long-lived donor to a nearby acceptor.

pIC50: −log10 of the molar value.

By inhibition is commonly meant the drop in the measured response relative to a control, in per cent. Broadly, the pIC50 is the IC50 on a negative log10 scale, so that one unit is a factor of ten.

T1 sequence (Q8NEB9 whole entry): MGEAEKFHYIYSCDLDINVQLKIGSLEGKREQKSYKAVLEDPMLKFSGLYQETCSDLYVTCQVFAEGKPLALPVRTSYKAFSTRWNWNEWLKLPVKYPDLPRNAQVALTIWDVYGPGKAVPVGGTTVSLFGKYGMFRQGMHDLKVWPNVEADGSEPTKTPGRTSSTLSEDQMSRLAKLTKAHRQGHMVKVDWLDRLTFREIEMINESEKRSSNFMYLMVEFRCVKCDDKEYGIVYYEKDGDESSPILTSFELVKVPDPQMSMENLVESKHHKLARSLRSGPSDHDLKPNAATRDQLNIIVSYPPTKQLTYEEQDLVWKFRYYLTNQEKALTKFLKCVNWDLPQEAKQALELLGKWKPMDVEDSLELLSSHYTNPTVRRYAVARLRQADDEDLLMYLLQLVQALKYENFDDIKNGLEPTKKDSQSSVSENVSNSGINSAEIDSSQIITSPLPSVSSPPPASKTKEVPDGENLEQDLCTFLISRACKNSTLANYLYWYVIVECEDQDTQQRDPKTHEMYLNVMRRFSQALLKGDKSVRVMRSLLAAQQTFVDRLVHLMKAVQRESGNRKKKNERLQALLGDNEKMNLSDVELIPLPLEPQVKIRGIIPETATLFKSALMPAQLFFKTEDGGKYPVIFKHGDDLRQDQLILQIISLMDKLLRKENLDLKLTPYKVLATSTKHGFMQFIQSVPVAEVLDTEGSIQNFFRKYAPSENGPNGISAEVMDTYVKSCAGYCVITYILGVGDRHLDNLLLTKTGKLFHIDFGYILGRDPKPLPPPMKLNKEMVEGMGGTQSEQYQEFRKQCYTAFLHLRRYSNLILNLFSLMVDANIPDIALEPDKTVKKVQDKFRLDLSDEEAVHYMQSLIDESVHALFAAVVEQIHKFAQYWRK

`CC(=O)Nc1cc(-c2cc(-c3ccccc3Cl)n(-c3nccs3)n2)ccn1` [I-3, N-[4-[5-(2-chlorophenyl)-1-(1,3-thiazol-2-yl)-1H-pyrazol-3-yl]pyridin-2-yl]acetamide]: the inhibition at 1.11 µM was 6% and the negative-log IC50 (pIC50) is 5.00 to 6.00.

Consider `CC(=O)Nc1cc(-c2cc(C(N)=O)n(-c3ccccc3Cl)n2)ccn1` [I-14, 3-(2-acetamidopyridin-4-y1)-1-(2-chlorophenyl)-1H-pyrazole-5-carboxamide], for which the inhibition at 1.11 µM is 45% and the pIC50 is 5.00 to 6.00.

As for `CC(=O)Nc1cc(-c2cc(-c3nnc[nH]3)n(-c3ccc(Cl)cc3Cl)n2)ccn1` [I-15, N-{4-[1-(2,4-dichlorophenyl)-5-(4H-1,2,4-triazol-3-yl)-1H-pyrazol-3-yl]pyridin-2-yl}acetamide], the inhibition at 1.11 µM was over 99% and the pIC50 was over 7.00.

As for `CC(=O)Nc1cc(-c2cc(-c3nnc[nH]3)n(-c3ccccc3Cl)n2)ccn1` [I-21, N-{4-[1-(2-chlorophenyl)-5-(1H-1,2,4-triazol-3-yl)-1H-pyrazol-3-yl]pyridin-2-yl}acetamide], the inhibition at 1.11 µM is 96% and the negative-log IC50 (pIC50) is 6.00 to 7.00.

As to `CCn1cc(-c2nnc[nH]2)cc1-c1ccnc(NC(C)=O)c1` [I-86, N-{4-[1-ethyl-4-(4H-1,2,4-triazol-3-yl)-1H-pyrrol-2-yl]pyridin-2-yl}acetamide], the inhibition at 1.11 µM was over 99% and the pIC50 was 6.00 to 7.00.

Take `CC(=O)Nc1cc(-c2cc(-c3nnc[nH]3)cn2CC2CC2)ccn1` [I-87, N-{4-[1-(cyclopropylmethyl)-4-(4H-1,2,4-triazol-3-yl)-1H-pyrrol-2-yl]pyridin-2-yl}acetamide]: the inhibition at 1.11 µM was determined as 93% and the negative logarithm of the IC50 (pIC50) was 6.00 to 7.00.

As for `C=CCn1cc(-c2cc(NC(=O)C3CC3)ncc2C)cc1-c1nc[nH]n1` [I-88, N-{4-[1-allyl-5-(1H-1,2,4-triazol-3-yl)-1H-pyrrol-3-yl]-5-methylpyridin-2-yl}cyclopropanecarboxamide], the inhibition at 1.11 µM was determined as 69% and the pIC50 was over 7.00.

On to `CC(=O)Nc1cc(-c2cc(C(N)=O)n(-c3ccc(N)cc3Cl)c2)c(C)cn1` [I-89, 4-(2-acetamido-5-methylpyridin-4-yl)-1-(4-amino-2-chlorophenyl)-1H-pyrrole-2-carboxamide], for which the inhibition at 1.11 µM is over 99% and the pIC50 is over 7.00.

Turning to `CC(=O)Nc1cc(-c2cc(C(N)=O)n(-c3ncccc3Cl)c2)c(C)cn1` [I-90, 4-(2-acetamido-5-methylpyridin-4-yl)-1-(3-chloropyridin-2-yl)-1H-pyrrole-2-carboxamide], the inhibition at 1.11 µM is 39% and the pIC50 is 5.00 to 6.00.

With `CC(=O)Nc1cc(-c2cc(-c3nnc[nH]3)n(CC3CC3)c2)c(C)cn1` [I-91, N-{4-[1-(cyclopropylmethyl)-5-(4H-1,2,4-triazol-3-yl)-1H-pyrrol-3-yl]-5-methylpyridin-2-yl}acetamide], the inhibition at 1.11 µM was over 99% and the negative-log IC50 (pIC50) is over 7.00.

Regarding `CC(=O)Nc1cc(-c2cc(C(N)=O)n(CC3CC3)c2)c(C)cn1` [I-92, 4-(2-acetamido-5-methylpyridin-4-yl)-1-(cyclopropylmethyl)-1H-pyrrole-2-carboxamide], the inhibition at 1.11 µM is 68% and the negative-log IC50 (pIC50) was 6.00 to 7.00.

Consider `CC(=O)Nc1cc(-c2cc(-c3nc[nH]n3)n(-c3ccccc3Cl)c2)c(C)cn1` [I-93, N-{4-[1-(2-chlorophenyl)-5-(1H-1,2,4-triazol-3-yl)-1H-pyrrol-3-yl]-5-methylpyridin-2-yl}acetamide], for which the inhibition at 1.11 µM was over 99% and the negative-log IC50 (pIC50) was over 7.00.

`CCCn1cc(-c2cc(NC(=O)C3CC3)ncc2C)cc1-c1nc[nH]n1` [I-94, N-{5-methyl-4-[1-propyl-5-(4H-1,2,4-triazol-3-yl)-1H-pyrrol-3-yl]pyridin-2-yl}cyclopropanecarboxamide]: the inhibition at 1.11 µM was over 99% and the pIC50 is 6.00 to 7.00.

Take `CC(=O)Nc1cc(-c2cc(C(N)=O)c(-c3ccnc(NC(C)=O)c3)n2C)ccn1` [I-95, 2,5-bis(2-acetamidopyridin-4-yl)-1-methyl-1H-pyrrole-3-carboxamide]: the inhibition at 1.11 µM is 18% and the pIC50 was 5.00 to 6.00.

For `CC(=O)Nc1cc(-c2cc(-c3nc[nH]n3)n(-c3ncccc3Cl)c2)c(C)cn1` [I-96], the inhibition at 1.11 µM was found to be 96% and the pIC50 was 6.00 to 7.00.

Regarding `CC(=O)Nc1cc(-c2cc(C(N)=O)n(-c3ccccc3Cl)c2)c(C)cn1` [I-97, 4-(2-acetamido-5-methylpyridin-4-yl)-1-(2-chlorophenyl)-1H-pyrrole-2-carboxamide], the inhibition at 1.11 µM is 96% and the negative-log IC50 (pIC50) is 6.00 to 7.00.

Regarding `Cc1cnc(NC(=O)C2CC2)cc1-c1cc(-c2nc[nH]n2)n(-c2ccccc2Cl)c1` [I-98, N-{4-[1-(2-chlorophenyl)-5-(1H-1,2,4-triazol-3-yl)-1H-pyrrol-3-yl]-5-methylpyridin-2-yl}cyclopropanecarboxamide], the inhibition at 1.11 µM was over 99% and the pIC50 is over 7.00.

As to `Cc1cnc(NC(=O)C2CC2)cc1-c1cc(C(N)=O)n(-c2ccccc2Cl)c1` [I-99, 1-(2-chlorophenyl)-4-{2-[(cyclopropylcarbonyl)amino]-5-methylpyridin-4-yl}-1H-pyrrole-2-carboxamide], the inhibition at 1.11 µM worked out at 93% and the pIC50 was 6.00 to 7.00.

As for `CCn1cc(C(N)=O)cc1-c1ccnc(NC(C)=O)c1` [I-100, 5-(2-acetamidopyridin-4-yl)-1-ethyl-1H-pyrrole-3-carboxamide], the inhibition at 1.11 µM came out at 54% and the negative-log IC50 (pIC50) is 6.00 to 7.00.

For `CC(=O)Nc1cc(-c2cc(-c3ccccc3C)c(-c3nnc[nH]3)[nH]2)ccn1` [I-101, N-{4-[4-(2-methylphenyl)-5-(4H-1,2,4-triazol-3-yl)-1H-pyrrol-2-yl]pyridin-2-yl}acetamide], the inhibition at 1.11 µM stood at 60% and the negative logarithm of the IC50 (pIC50) is 6.00 to 7.00.

Take `CC(=O)Nc1cc(-c2cc(-c3ccccc3C)c(C(N)=O)[nH]2)ccn1` [I-102, 5-(2-acetamidopyridin-4-yl)-3-(2-methylphenyl)-1H-pyrrole-2-carboxamide]: the inhibition at 1.11 µM was 96% and the pIC50 is 6.00 to 7.00.

Regarding `CC(=O)Nc1cc(-c2cc(-c3ccccc3C)c(-c3nc[nH]n3)n2C)ccn1` [I-103, N-{4-[1-methyl-4-(2-methylphenyl)-5-(1H-1,2,4-triazol-3-yl)-1H-pyrrol-2-yl]pyridin-2-yl}acetamide], the inhibition at 1.11 µM is 39% and the pIC50 is 5.00 to 6.00.

For the compound `CC(=O)Nc1cc(-c2cc(-c3ccccc3C)c(C(N)=O)n2C)ccn1` [I-104, 5-(2-acetamidopyridin-4-yl)-1-methyl-3-(2-methylphenyl)-1H-pyrrole-2-carboxamide], the inhibition at 1.11 µM was 7% and the negative logarithm of the IC50 (pIC50) was 5.00 to 6.00.
